Data taken from ChEMBL document CHEMBL3112424, “Discovery and optimization of pyrimidone indoline amide PI3Kβ inhibitors for the treatment of phosphatase and tensin homologue (PTEN)-deficient cancers” (J Med Chem, 2014).

Key:
[1] = AUC (infinity) in Beagle dog at 10 mg/kg, po; assay type: ADME, organism-based, Canis lupus familiaris; set-up: time infinity, dose 10 mg/kg, route oral; settings: plasma
[2] = AUC (infinity) in Beagle dog at 3 mg/kg, iv; assay type: ADME, organism-based, Canis lupus familiaris; set-up: time infinity, dose 3 mg/kg, route intravenous; settings: plasma
[3] = Tmax in Beagle dog at 3 mg/kg, iv; assay type: ADME, organism-based, Canis lupus familiaris; set-up: dose 3 mg/kg, route intravenous; settings: in vivo
[4] = Tmax in nude rat at 10 mg/kg, po; assay type: ADME, organism-based; set-up: dose 10 mg/kg, route oral; settings: in vivo
[5] = AUC (infinity) in nude rat at 10 mg/kg, po; assay type: ADME, organism-based; set-up: time infinity, dose 10 mg/kg, route oral; settings: plasma
[6] = Volume of distribution at steady state in nude rat at 3 mg/kg, iv; assay type: ADME, organism-based; set-up: dose 3 mg/kg, route intravenous; settings: in vivo, read-out: Vdss
[7] = AUC (infinity) in nude rat at 3 mg/kg, iv; assay type: ADME, organism-based; set-up: time infinity, dose 3 mg/kg, route intravenous; settings: plasma
Mus musculus [8] = assay: Toxicity in SCID mouse xenografted with BRAF-V600E/PTEN-deficient human UACC62 cells assessed as body weight loss at 150 mg/kg, po bid; assay type: organism-based, UACC-62; set-up: dose 150 mg/kg, route oral; settings: in vivo
Mus musculus [9] = assay: In vivo inhibition of PI3Kbeta in tumor of SCID mouse xenografted with BRAF-V600E/PTEN-deficient human UACC62 cells assessed as inhibition of Akt phosphorylation at S473 at 200 mg/kg, po up to 6 hrs; assay type: functional; settings: UACC-62, 6 h
[10] = Half life in nude rat at 10 mg/kg, po; assay type: ADME, organism-based; set-up: dose 10 mg/kg, route oral; settings: in vivo
Mus musculus [11] = assay: Toxicity in SCID mouse xenografted with PTEN-deficient human PC3 cells at 150 mg/kg, po bid; assay type: organism-based, PC-3; set-up: dose 150 mg/kg, route oral; settings: in vivo
PC-3 = assay: Antitumor activity against PTEN-deficient human PC3 cells xenografted in SCID mouse assessed as tumor growth inhibition at 150 mg/kg, po bid measured on day 31; assay type: functional
Mus musculus [12] = assay: In vivo inhibition of PI3Kbeta in tumor of po dosed SCID mouse xenografted with PTEN-deficient human PC3 cells assessed as inhibition of Akt phosphorylation at S473; assay type: functional, organism-based; settings: PC-3
[13] = Plasma concentration in SCID mouse xenografted with PTEN-deficient human PC3 cells at 100 mg/kg, po after 24 hrs; assay type: ADME, organism-based, PC-3; set-up: dose 100 mg/kg, route oral
[14] = Apparent terminal half life in Balb/c mouse plasma at 10 mg/kg, po by LC-MS/MS analysis; assay type: ADME, organism-based; set-up: dose 10 mg/kg, route oral; settings: read-out: betat1/2(app) (converted)
[15] = Cmax in Balb/c mouse plasma at 10 mg/kg, po after 15 to 30 mins by LC-MS/MS analysis; assay type: ADME, organism-based; set-up: dose 10 mg/kg, route oral
[16] = Volume of distribution at steady state in Balb/c mouse plasma at 3 mg/kg, iv by LC-MS/MS analysis; assay type: ADME, organism-based; set-up: dose 3 mg/kg, route intravenous; settings: read-out: Vdss
[17] = AUC (infinity) in Balb/c mouse plasma at 3 mg/kg, iv by LC-MS/MS analysis; assay type: ADME, organism-based; set-up: time infinity, dose 3 mg/kg, route intravenous
[18] = target: Phosphatidylinositol 3-kinase catalytic subunit type 3 (Homo sapiens, UniProt Q8NEB9); assay: Inhibition of VPS34 (unknown origin)
Phosphatidylinositol 3-kinase catalytic subunit type 3, sequence (Q8NEB9 whole entry, the tested form may be a part): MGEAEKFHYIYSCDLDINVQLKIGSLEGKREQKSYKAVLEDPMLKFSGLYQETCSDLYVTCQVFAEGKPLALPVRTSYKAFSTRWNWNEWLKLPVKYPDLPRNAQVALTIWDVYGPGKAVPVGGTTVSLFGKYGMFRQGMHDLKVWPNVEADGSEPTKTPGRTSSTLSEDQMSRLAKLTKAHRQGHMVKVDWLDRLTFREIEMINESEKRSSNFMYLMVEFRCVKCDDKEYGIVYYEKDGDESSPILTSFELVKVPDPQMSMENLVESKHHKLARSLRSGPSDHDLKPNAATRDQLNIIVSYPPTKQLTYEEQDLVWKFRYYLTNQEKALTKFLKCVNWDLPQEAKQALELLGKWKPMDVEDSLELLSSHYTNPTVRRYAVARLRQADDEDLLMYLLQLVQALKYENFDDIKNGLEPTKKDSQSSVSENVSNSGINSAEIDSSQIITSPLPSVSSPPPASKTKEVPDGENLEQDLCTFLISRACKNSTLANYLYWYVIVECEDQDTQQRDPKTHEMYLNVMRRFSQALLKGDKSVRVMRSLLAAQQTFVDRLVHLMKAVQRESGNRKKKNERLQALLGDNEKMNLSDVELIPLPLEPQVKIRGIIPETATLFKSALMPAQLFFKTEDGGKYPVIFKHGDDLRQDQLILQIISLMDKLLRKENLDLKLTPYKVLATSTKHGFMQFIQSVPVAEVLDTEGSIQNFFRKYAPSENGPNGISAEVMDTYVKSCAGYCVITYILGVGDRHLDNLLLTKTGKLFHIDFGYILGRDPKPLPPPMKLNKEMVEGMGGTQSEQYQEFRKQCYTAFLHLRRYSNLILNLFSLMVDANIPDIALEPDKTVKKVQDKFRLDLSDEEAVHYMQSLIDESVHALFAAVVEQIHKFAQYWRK

[19] = target: T1, Phosphatidylinositol 3-kinase C2 domain-containing subunit gamma (Homo sapiens, UniProt O75747); assay: Inhibition of PI3KC2gamma (unknown origin)
T1 sequence (O75747 whole entry): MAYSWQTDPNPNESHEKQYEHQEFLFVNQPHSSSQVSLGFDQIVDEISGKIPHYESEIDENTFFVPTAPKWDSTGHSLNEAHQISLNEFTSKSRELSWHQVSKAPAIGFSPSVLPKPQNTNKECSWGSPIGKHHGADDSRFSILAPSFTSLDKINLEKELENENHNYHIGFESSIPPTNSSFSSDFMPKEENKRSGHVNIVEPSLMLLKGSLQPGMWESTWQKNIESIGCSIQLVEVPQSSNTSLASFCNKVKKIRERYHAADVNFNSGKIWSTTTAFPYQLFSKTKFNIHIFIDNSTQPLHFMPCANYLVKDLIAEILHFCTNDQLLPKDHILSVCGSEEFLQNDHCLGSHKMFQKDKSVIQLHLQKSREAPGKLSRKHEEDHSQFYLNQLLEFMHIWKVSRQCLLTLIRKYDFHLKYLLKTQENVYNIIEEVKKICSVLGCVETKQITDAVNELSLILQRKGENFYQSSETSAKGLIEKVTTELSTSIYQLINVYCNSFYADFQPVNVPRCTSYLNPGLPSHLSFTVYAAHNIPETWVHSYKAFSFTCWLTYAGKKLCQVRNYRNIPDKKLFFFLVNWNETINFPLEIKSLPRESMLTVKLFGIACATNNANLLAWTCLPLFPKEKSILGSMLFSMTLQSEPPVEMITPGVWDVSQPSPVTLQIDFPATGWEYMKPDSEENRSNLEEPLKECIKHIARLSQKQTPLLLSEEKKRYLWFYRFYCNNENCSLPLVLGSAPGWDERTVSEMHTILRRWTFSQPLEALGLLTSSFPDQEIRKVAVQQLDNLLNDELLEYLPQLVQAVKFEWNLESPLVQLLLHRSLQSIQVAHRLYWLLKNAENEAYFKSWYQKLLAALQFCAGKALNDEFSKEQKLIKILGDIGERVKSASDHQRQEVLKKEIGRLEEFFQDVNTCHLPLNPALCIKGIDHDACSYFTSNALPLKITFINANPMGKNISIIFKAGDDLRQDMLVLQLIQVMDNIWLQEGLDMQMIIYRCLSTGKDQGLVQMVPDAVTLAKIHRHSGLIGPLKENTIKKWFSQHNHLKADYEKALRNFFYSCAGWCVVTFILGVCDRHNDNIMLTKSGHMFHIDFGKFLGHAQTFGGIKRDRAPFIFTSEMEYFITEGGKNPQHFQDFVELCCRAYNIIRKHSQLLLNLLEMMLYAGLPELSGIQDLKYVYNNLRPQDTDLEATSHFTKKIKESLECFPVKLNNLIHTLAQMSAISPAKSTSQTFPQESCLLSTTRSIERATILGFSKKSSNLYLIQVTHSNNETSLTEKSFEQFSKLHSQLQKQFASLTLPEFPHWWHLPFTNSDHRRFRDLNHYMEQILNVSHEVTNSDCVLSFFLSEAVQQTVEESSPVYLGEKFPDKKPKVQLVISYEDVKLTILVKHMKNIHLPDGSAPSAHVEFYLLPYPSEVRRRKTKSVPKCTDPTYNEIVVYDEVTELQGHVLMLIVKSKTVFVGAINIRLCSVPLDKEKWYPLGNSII

[20] = target: Phosphatidylinositol 4-phosphate 3-kinase C2 domain-containing subunit alpha (Homo sapiens, UniProt O00443); assay: Inhibition of PI3KC2alpha (unknown origin)
Phosphatidylinositol 4-phosphate 3-kinase C2 domain-containing subunit alpha, sequence (O00443 whole entry, the tested form may be a part): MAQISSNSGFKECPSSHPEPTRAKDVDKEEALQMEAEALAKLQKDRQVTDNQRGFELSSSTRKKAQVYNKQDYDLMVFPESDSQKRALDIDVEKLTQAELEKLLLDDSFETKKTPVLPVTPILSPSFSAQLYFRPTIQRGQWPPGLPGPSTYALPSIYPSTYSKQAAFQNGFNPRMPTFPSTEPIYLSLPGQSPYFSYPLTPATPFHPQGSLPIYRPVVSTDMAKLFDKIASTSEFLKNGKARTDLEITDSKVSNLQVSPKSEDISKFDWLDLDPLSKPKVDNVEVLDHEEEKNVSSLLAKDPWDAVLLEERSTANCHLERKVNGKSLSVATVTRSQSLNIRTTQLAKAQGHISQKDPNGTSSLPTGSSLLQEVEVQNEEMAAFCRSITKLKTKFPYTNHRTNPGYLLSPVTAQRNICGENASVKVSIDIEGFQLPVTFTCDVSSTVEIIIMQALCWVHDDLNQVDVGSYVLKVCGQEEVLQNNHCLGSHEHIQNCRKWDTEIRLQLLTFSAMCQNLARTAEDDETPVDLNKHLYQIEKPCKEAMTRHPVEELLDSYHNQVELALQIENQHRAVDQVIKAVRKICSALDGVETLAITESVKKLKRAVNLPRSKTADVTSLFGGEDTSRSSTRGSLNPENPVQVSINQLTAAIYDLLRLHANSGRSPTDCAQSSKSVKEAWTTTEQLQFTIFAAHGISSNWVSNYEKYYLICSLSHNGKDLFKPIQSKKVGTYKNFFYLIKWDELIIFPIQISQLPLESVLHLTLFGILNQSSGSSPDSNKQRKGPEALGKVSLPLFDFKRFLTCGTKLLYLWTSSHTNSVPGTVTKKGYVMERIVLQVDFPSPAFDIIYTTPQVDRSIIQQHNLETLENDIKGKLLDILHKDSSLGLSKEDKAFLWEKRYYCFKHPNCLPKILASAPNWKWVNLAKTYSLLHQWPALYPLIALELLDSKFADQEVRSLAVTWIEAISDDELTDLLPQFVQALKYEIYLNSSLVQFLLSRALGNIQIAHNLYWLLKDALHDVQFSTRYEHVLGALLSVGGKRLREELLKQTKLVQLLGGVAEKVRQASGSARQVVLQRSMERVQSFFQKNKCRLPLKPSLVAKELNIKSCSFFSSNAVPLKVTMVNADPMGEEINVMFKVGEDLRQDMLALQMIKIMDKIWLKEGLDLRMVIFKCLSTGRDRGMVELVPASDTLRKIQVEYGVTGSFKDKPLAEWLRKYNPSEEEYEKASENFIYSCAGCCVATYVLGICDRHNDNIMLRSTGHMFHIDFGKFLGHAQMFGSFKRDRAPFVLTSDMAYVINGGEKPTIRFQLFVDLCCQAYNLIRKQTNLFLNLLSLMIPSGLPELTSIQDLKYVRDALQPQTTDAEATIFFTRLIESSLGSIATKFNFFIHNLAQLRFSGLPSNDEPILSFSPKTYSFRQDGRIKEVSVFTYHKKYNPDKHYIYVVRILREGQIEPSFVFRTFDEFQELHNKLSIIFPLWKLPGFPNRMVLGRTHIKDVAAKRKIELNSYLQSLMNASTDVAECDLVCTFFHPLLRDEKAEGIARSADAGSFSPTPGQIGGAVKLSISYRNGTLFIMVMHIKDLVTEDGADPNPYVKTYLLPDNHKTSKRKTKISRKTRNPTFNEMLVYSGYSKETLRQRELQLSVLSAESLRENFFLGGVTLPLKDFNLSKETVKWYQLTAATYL

[21] = target: DNA-dependent protein kinase catalytic subunit (Homo sapiens, UniProt P78527); assay: Inhibition of DNA-PK (unknown origin)
Cytochrome P450 3A4 = Cytochrome P450 3A4 (Homo sapiens, UniProt P08684); assay: Inhibition of recombinant human CYP3A4
Cytochrome P450 3A4, sequence (P08684 whole entry): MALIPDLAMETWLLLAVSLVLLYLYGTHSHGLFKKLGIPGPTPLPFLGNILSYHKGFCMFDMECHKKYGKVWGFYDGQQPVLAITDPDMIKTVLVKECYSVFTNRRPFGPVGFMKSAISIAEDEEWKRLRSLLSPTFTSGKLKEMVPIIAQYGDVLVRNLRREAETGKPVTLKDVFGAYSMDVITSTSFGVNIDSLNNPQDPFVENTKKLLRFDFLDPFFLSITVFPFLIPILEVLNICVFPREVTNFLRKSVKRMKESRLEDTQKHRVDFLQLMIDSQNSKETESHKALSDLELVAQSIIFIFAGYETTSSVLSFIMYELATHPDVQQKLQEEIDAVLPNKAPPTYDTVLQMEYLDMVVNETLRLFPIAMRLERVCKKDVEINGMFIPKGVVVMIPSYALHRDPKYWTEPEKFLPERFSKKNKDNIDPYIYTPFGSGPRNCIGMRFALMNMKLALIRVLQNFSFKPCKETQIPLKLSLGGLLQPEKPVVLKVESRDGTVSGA

[22] = Metabolic stability in mouse liver microsomes at 5 uM after 20 mins; settings: liver microsomes
[23] = target: Phosphatidylinositol 4,5-bisphosphate 3-kinase catalytic subunit beta isoform (Homo sapiens, UniProt P42338); assay: Inhibition of PI3Kbeta-mediated Akt phosphorylation at S473 in PTEN-deficient human PC3 cells after 0.5 to 2 hrs by Immunoblotting assay; assay type: cell-based, PC-3
Phosphatidylinositol 4,5-bisphosphate 3-kinase catalytic subunit beta isoform, sequence (P42338 whole entry, canonical isoform): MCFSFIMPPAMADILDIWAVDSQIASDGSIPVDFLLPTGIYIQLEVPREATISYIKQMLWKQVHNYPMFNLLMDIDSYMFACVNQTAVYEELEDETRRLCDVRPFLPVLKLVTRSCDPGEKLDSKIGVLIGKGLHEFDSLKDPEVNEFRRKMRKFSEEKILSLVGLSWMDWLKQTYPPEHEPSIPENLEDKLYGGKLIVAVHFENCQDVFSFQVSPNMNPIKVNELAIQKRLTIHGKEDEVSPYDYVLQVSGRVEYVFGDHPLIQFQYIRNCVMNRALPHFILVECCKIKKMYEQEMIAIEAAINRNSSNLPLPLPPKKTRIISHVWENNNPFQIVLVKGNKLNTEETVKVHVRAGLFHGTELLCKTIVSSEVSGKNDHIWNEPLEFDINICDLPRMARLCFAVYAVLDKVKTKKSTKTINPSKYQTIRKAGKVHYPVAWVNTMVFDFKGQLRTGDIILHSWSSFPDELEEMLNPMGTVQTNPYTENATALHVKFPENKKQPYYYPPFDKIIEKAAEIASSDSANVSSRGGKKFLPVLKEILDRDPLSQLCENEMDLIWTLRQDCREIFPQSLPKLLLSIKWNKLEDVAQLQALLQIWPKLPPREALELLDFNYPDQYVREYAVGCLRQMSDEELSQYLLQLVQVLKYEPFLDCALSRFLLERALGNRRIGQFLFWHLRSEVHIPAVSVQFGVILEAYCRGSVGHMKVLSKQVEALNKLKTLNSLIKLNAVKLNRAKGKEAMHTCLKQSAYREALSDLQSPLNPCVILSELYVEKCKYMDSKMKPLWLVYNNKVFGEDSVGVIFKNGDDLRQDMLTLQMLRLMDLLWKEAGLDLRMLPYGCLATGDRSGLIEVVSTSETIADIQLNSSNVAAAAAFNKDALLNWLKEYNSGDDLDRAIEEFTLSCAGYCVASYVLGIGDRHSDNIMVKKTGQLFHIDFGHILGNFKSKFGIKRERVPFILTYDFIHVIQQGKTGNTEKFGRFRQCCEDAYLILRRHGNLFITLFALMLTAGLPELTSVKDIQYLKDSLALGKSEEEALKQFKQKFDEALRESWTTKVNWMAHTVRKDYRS

SMILES: C[C@H]1Cc2ccccc2N1C(=O)Cc1nc(N2CCOCC2)cc(=O)[nH]1 [SAR-260301]
- AUC(0-inf) [1]: 14000 ng·h/mL
- AUC(0-inf) [2]: 6580 ng·h/mL
- Tmax [3]: 30 min
- Tmax [4]: 15 min
- AUC(0-inf) [5]: 2410 ng·h/mL
- Vd [6]: 8.1 L/kg
- AUC(0-inf) [7]: 864 ng·h/mL
- Activity (Mus musculus [8]): Non-toxic
- inhibition in vivo at 200 mg/kg (Mus musculus [9]): > 50%
- half-life [10]: 414 min
- Activity (Mus musculus [11]): Non-toxic
- T/C (PC-3): 61%
- EC50 (Mus musculus [12]): 680 nM
- concentration at 24 h [13]: 76 nM
- half-life [14]: 84 min
- Cmax [15]: 848 ng/mL
- Vd [16]: 1 L/kg
- AUC(0-inf) [17]: 600 ng·h/mL
- IC50 [18]: 183 nM
- IC50 [19]: 3810 nM
- IC50 [20]: > 10000 nM
- IC50 [21]: 2000 nM
- IC50 (Cytochrome P450 3A4): 40000 nM
- remaining at 20 min, 5 µM [22]: 19%
- IC50 [23]: 49 nM
